From US20160158200A1, “Combinations of Hepatitis C Virus Inhibitors” (priority 2013, published 2016)

System: HCV genotype-1a variant with glutamine 30 changed to glutamate in the NS5A protein
Assay type: cell-based
Conditions: test compound titrated with BMS-790052 fixed at 200 nM; genotype 1a Q30E replicon
Description: The NS5A synergistic inhibitory effect of test compounds can be determined using various amounts of an NS5A-targeting compound with titration of a second compound of interest. […] In one embodiment, the HCV genotype strain can be genotype 1a containing a change at amino acid 30 of the NS5A protein consisting of glutamine to glutamate. The test compound can be chosen from compounds listed above or from others present in the literature.

| SMILES | Fold-Synergistic 1a (Q30E) |
| --- | --- |
| CC(C)[C@H](NC(=O)CCN1CCOCC1)c1ncc(-c2ccc(-c3ccc(-c4cnc([C@@H](NC(=O)CCN5CCOCC5)C(C)C)[nH]4)cc3)cc2)[nH]1 [Compound S-62] | <10 fold |
| CCOC(=O)N[C@@H](C(=O)N[C@H](c1ncc(-c2ccc(-c3ccc(-c4cnc([C@@H](NC(=O)[C@H](NC(=O)OCC)C(C)C)C(C)C)[nH]4)cc3)cc2)[nH]1)C(C)C)C(C)C [Compound S-247] | >100 fold |
| C[C@H](C(=O)N[C@H](c1nc(-c2ccc(-c3ccc(-c4c[nH]c([C@@H](NC(=O)[C@@H](C)c5ccccc5)C(C)(C)C)n4)cc3)cc2)c[nH]1)C(C)(C)C)c1ccccc1 [Compound N-60] | >100 fold |
| CC(C)[C@H](NC(=O)c1c(F)cccc1Cl)c1ncc(-c2ccc(-c3ccc(-c4cnc([C@@H](NC(=O)c5c(F)cccc5Cl)C(C)(C)C)[nH]4)cc3)cc2)[nH]1 [Compound Y-43] | >100 fold |
| CC(C)(C)[C@H](NC(=O)CS(C)(=O)=O)c1nc(-c2ccc(-c3ccc(-c4cnc([C@@H](NC(=O)CS(C)(=O)=O)C(C)(C)C)[nH]4)cc3)cc2)c[nH]1 [Compound B-181] | >10 fold |
| CN1CC(F)(F)C[C@H]1C(=O)N[C@H](c1nc(-c2ccc(-c3ccc(-c4c[nH]c([C@@H](NC(=O)[C@@H]5CC(F)(F)CN5C)C(C)(C)C)n4)cc3)cc2)c[nH]1)C(C)(C)C [Compound P-35] | >100 fold |
| COC(=O)N(C)[C@H](C(=O)N[C@H](c1ncc(-c2ccc(-c3ccc(-c4cnc([C@@H](NC(=O)[C@H](C(C)C)N(C)C(=O)OC)C(C)C)[nH]4)cc3)cc2)[nH]1)C(C)C)C(C)C [Compound P-107] | >100 fold |
| CC1([C@H](NC(=O)C(=O)N2CCC(F)(F)CC2)c2nc(-c3ccc(-c4ccc(-c5c[nH]c([C@@H](NC(=O)C(=O)N6CCC(F)(F)CC6)C6(C)CC6)n5)cc4)cc3)c[nH]2)CC1.O=C(O)C(F)(F)F [Compound W-39] | >100 fold |
| COCC1(C(=O)N[C@H](c2nc(-c3ccc(-c4ccc(-c5c[nH]c([C@@H](NC(=O)C6(COC)CCC6)C(C)(C)C)n5)cc4)cc3)c[nH]2)C(C)(C)C)CCC1 [Compound N-59] | >100 fold |
| CC(O)C1(C(=O)N[C@H](c2ncc(-c3ccc(-c4ccc(-c5cnc([C@@H](NC(=O)C6(C(C)O)CC6)C(C)(C)C)[nH]5)cc4)cc3)[nH]2)C(C)(C)C)CC1 (single isomer, unassigned) [Compound B73] | >100 fold |
| CC(C)(C)OC(=O)N1CC(F)(F)CC1(C)C(=O)N[C@H](c1nc(-c2ccc(-c3ccc(-c4c[nH]c([C@@H](NC(=O)C5(C)CC(F)(F)CN5C(=O)OC(C)(C)C)C(C)(C)C)n4)cc3)cc2)c[nH]1)C(C)(C)C (single isomer, unassigned) [Compound W-76] | >100 fold |
| CC(C)(C)[C@H](NC(=O)Cc1ccccc1OC(F)(F)F)c1nc(-c2ccc(-c3ccc(-c4c[nH]c([C@@H](NC(=O)Cc5ccccc5OC(F)(F)F)C(C)(C)C)n4)cc3)cc2)c[nH]1 [Compound Y-73] | >100 fold |
| COc1ccccc1C(=O)N[C@H](c1ncc(-c2ccc(-c3ccc(-c4cnc([C@@H](NC(=O)c5ccccc5OC)C(C)C)[nH]4)cc3)cc2)[nH]1)C(C)C [Compound S-68] | >100 fold |
| CC(C)[C@H](NC(=O)c1cc(Cl)cc(Cl)c1)c1ncc(-c2ccc(-c3ccc(-c4cnc([C@@H](NC(=O)c5cc(Cl)cc(Cl)c5)C(C)C)[nH]4)cc3)cc2)[nH]1 [Compound S-76] | >100 fold |
| CC(C)(C)C(=O)N[C@H](c1ncc(-c2ccc(-c3ccc(-c4cnc([C@@H](NC(=O)C(C)(C)C)C5(C)CCC5)[nH]4)cc3)cc2)[nH]1)C1(C)CCC1 [Compound Y-39] | >100 fold |
| CC(C)(NC(=O)OCCF)C(=O)N[C@H](c1nc(-c2ccc(-c3ccc(-c4c[nH]c([C@@H](NC(=O)C(C)(C)NC(=O)OCCF)C(C)(C)C)n4)cc3)cc2)c[nH]1)C(C)(C)C [Compound Q-4] | >100 fold |
| CC(C)(C)[C@H](NC(=O)[C@@H]1C[C@@H]2CC(F)(F)C[C@@H]2C1)c1nc(-c2ccc(-c3ccc(-c4c[nH]c([C@@H](NC(=O)[C@@H]5C[C@@H]6CC(F)(F)C[C@@H]6C5)C(C)(C)C)n4)cc3)cc2)c[nH]1 [Compound P-43] | >100 fold |
| C[C@@H](C(=O)N[C@H](c1nc(-c2ccc(-c3ccc(-c4c[nH]c([C@@H](NC(=O)[C@H](C)c5ccccc5)C(C)(C)C)n4)cc3)cc2)c[nH]1)C(C)(C)C)c1ccccc1 [Compound N-61] | >100 fold |
| CC(C)C(NC(=O)C(=O)N1CCC(C(F)(F)F)CC1)c1nc(-c2ccc(-c3ccc(-c4c[nH]c(C(NC(=O)C(=O)N5CCC(C(F)(F)F)CC5)C(C)C)n4)cc3)cc2)c[nH]1 (centres unmarked) [Compound W-53] | >100 fold |
| COc1cnc(C(=O)N2CCC[C@H]2c2ncc(-c3ccc(-c4ccc(-c5cnc([C@@H]6CCCN6C(=O)c6ncc(OC)c7ccccc67)[nH]5)cc4)cc3)[nH]2)c2ccccc12 [Compound S-199] | >100 fold |
| CC(C)(C)[C@H](NC(=O)C1CCC(F)(F)CC1)c1ncc(-c2ccc3cc(-c4ccc5nc([C@@H](NC(=O)C6CCC(F)(F)CC6)C(C)(C)C)[nH]c5c4)ccc3c2)[nH]1 [Compound B53] | >100 fold |
| CC1(C(=O)N[C@H](c2nc(-c3ccc(-c4ccc(-c5c[nH]c([C@@H](NC(=O)C6(C)CCCCC6O)C(C)(C)C)n5)cc4)cc3)c[nH]2)C(C)(C)C)CCCCC1O (single isomer, unassigned) [Compound Y-104] | >100 fold |
| CC(C)(C)[C@H](NC(=O)C1CCC(F)(F)CC1)c1nc2ccc(C#Cc3ccc4nc([C@@H](NC(=O)C5CCC(F)(F)CC5)C(C)(C)C)[nH]c4c3)cc2[nH]1 [Compound B38] | >100 fold |
| CCOC(=O)C(C)(C)C(=O)N[C@H](c1nc(-c2ccc(-c3ccc(-c4c[nH]c([C@@H](NC(=O)C(C)(C)C(=O)OCC)C(C)(C)C)n4)cc3)cc2)c[nH]1)C(C)(C)C.O=C(O)C(F)(F)F.O=C(O)C(F)(F)F [Compound W-126] | >100 fold |
| CC(C)(C)[C@H](NC(=O)C(=O)N1C(C)(C)CCCC1(C)C)c1nc(-c2ccc(-c3ccc(-c4c[nH]c([C@@H](NC(=O)C(=O)N5C(C)(C)CCCC5(C)C)C(C)(C)C)n4)cc3)cc2)c[nH]1 [Compound W-248] | >100 fold |
| CC(C)[C@H](NC(=O)OCc1ccccc1)c1ncc(-c2ccc(-c3ccc(-c4cnc([C@@H](NC(=O)OCc5ccccc5)C(C)C)[nH]4)cc3)cc2)[nH]1 [Compound S-215] | >100 fold |
| O=C(c1cc2ccccc2o1)N1CCC[C@H]1c1ncc(-c2ccc(-c3ccc(-c4cnc([C@@H]5CCCN5C(=O)c5cc6ccccc6o5)[nH]4)cc3)cc2)[nH]1 [Compound S-122] | >10 fold |
| CC(C)[C@H](NC(=O)C(C)(C)CF)c1ncc(-c2ccc(-c3ccc(-c4cnc([C@@H](NC(=O)C(C)(C)CF)C(C)C)[nH]4)cc3)cc2)[nH]1 [Compound P-72] | >100 fold |
| CC1(C(=O)NC(c2nc(-c3ccc(-c4ccc(-c5c[nH]c(C(NC(=O)C6(C)CCCCC6=O)C(C)(C)C)n5)cc4)cc3)c[nH]2)C(C)(C)C)CCCCC1=O (mixture of isomers) [Compound Y-98] | >100 fold |
